According to patent US9296759B2, “Amino-oxazine and amino-dihydrothiazine compounds as beta-secretase modulators and methods of use” (AMGEN INC., priority 2011, dated 2016):

Experiments:
[1] = test system: Aβ40 in conditioned medium of cells stably expressing Amyloid Precursor Protein (APP); assay: In vitro BACE cell-based assay (HEK cell assay, Aβ40 sandwich ELISA); conditions: Homo sapiens, HEK293; average IC50, Aβ40, 24 h incubation
Protocol: In Vitro BACE Cell-Based Assay
The cell-based assay measures inhibition or reduction of Aβ40 in conditioned medium of test compound treated cells expressing amyloid precursor protein.
Cells stably expressing Amyloid Precursor Protein (APP) were plated at a density of 40K cells/well in 96 well plates (Costar). The cells were cultivated for 24 hours at 37° C. and 5% CO2 in DMEM supplemented with 10% FBS. The test compounds were then added to cells in 10-point dose response concentrations with the starting concentration being either 100 μM or 10 μM. The compounds were diluted from stock solutions in DMSO and the final DMSO concentration of the test compounds on cells was 0.1%. After 24 h of incubation with the test compounds the supernatant conditioned media was collected and the Aβ 40 levels were determined using a sandwich ELISA. The IC50 of the compound was calculated from the percent of control or percent inhibition of Aβ 40 as a function of the concentration of the test compound.
The sandwich ELISA to detect Aβ 40 was performed in 96 well microtiter plates, which were pre-treated with goat anti-rabbit IgG (Pierce). The capture and detecting antibody pair that were used to detect Aβ 40 from cell supernatants were affinity purified pAb40 (Biosource) and biotinylated 6E10 (Signet Labs Inc.), respectively. The optimal concentration for the pAb40 antibody was 3 μg/ml in Superblock/TBS (Pierce) that was supplemented with 0.05% Tween 20 (Sigma).
Cellular supernatants were incubated with the capture antibody for 3 h at 4° C., followed by 3 wash steps in TBS-tween (0.05%). The detecting antibody incubation was for 2 h at 4° C., again followed by the wash steps as described previously. The final readout of the ELISA is Time-Resolved Fluorescence (counts per minute) using Delfia reagents Streptavidin-Europium and Enhancement solutions (Perkin Elmer) and the Victor 2 multilabel counter (Perkin Elmer).

[2] = biological target: BACE 1 (beta secretase enzyme) (Homo sapiens (Human), UniProt P56817); assay: In vitro enzymatic BACE FRET assay; format: biochemical; conditions: average IC50
Protocol: In Vitro Enzymatic BACE FRET (Fluorescence Resonance Energy Transfer) Assay
The assay buffer used in this screen is 0.05 M acetate, pH 4.2, 10% DMSO final, 100 uM genapol (which is a nonionic detergent, below its Critical Micelle Concentration). […] This assay is effectively started by the addition of FRET substrate (50 nM) and the combination is incubated for one hour. The FRET assay is terminated with by addition of Tris buffer, which raises the pH to neutrality, and the fluorescence is determined. The FRET substrate is a peptide with commercially available fluorophore and quencher, on opposite sides of the BACE cleavage site. Proteolytic cleavage of the FRET substrate releases quenching of fluorescence (excitation […] and […]).

Cathepsin D = Cathepsin D (Homo sapiens (Human), UniProt P07339); assay: In vitro enzymatic Cat D (Cathepsin D) FRET assay; format: biochemical; conditions: average IC50
Protocol: In Vitro Enzymatic Cat D (Cathepsin D) FRET (Fluorescence Resonance Energy Transfer) Assay
Recombinant CathepsinD was expressed in CHO cells. The assay buffer for CathepsinD is 0.05 M citrate pH 3.5, 10% DMSO final, 5 mM CHAPS. […] The assays are effectively started by the addition of different FRET substrates (20 nM for CathepsinD) and the combination is incubated for one hour. The FRET assay is terminated with by addition of Tris buffer, which raises the pH to neutrality, and the fluorescence is determined. The FRET substrate is a peptide with commercially available fluorophore and quencher, on opposite sides of the BACE cleavage site. […] Proteolytic cleavage of the FRET substrate releases quenching of fluorescence (CathepsinD excitation 500 nm and emission 580 nm).

Sequence of Cathepsin D (P07339 65-412, species assumed): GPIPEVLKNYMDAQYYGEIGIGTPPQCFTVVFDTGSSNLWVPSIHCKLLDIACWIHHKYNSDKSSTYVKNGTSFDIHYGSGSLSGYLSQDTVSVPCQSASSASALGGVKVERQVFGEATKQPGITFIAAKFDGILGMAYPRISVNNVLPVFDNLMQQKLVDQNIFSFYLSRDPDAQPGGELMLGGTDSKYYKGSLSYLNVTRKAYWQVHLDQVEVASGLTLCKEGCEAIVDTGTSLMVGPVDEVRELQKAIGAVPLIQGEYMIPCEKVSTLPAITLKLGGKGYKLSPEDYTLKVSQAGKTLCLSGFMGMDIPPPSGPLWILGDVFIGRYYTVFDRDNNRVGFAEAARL
Sequence of BACE 1 (beta secretase enzyme) (P56817 46-501): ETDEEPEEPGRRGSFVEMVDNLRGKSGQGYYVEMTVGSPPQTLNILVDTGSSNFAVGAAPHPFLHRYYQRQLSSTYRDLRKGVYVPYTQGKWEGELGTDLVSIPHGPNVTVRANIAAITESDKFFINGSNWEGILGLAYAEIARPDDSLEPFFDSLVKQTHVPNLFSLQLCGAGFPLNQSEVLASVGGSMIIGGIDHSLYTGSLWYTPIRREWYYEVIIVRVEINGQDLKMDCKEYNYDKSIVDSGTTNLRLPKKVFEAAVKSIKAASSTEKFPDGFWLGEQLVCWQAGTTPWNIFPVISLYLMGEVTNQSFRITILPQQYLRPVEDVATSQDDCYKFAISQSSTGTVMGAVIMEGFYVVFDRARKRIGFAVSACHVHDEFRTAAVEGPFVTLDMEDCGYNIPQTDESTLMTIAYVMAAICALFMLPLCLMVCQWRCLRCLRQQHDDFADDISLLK

IC50 [1] | IC50 [2] | IC50 (Cathepsin D) | SMILES
1.8 nM | 1.1 nM | 120000 nM | COc1ccc(C(=O)Nc2ccc3c(c2)[C@@]2(CCSC(N)=N2)c2cc(-c4cncc(F)c4)nc(F)c2O3)nc1 [Example 113, N-((5S)-2′-amino-1-fluoro-3-(5-fluoro-3-pyridinyl)-5′,6′-dihydrospiro[chromeno[2,3-c]pyridine-5,4′-[1,3]thiazin]-7-yl)-5-methoxy-2-pyridinecarboxamide]
8.8 nM | – | – | COc1nc(C2=CCOCC2)cc2c1Oc1ccc(NC(=O)c3ccc(F)cn3)cc1[C@@]21CCOC(N)=N1 [Example 96, N-((5S)-2′-amino-3-(3,6-dihydro-2H-pyran-4-yl)-1-methoxy-5′,6′-dihydrospiro[chromeno[2,3-c]pyridine-5,4′-[1,3]oxazin]-7-yl)-5-fluoro-2-pyridinecarboxamide]
7.8 nM | – | 379000 nM | COc1cnc(C(=O)Nc2ccc3c(c2)[C@@]2(CCOC(N)=N2)c2cc(C4CCOCC4)cc(F)c2O3)cn1 [Example 61, N-((4S)-2-amino-5′-fluoro-7′-(tetrahydro-2H-pyran-4-yl)-5,6-dihydrospiro[1,3-oxazine-4,9′-xanthen]-2′-yl)-5-methoxy-2-pyrazinecarboxamide]
0.4 nM | – | 400000 nM | NC1=N[C@@]2(CCO1)c1cc(NC(=O)c3ccc(Cl)cn3)ccc1Oc1c2cc(-c2ccnc(F)c2)nc1F [Example 91, N-((5S)-2′-amino-1-fluoro-3-(2-fluoro-4-pyridinyl)-5′,6′-dihydrospiro[chromeno[2,3-c]pyridine-5,4′-[1,3]oxazin]-7-yl)-5-chloro-2-pyridinecarboxamide]
– | – | 400000 nM | COc1ccc(C(=O)Nc2ccc3c(c2)[C@@]2(CCOC(N)=N2)c2cc(-c4ccnc(F)c4)nc(F)c2O3)nc1 [Example 98, N-((5S)-2′-amino-1-fluoro-3-(2-fluoro-4-pyridinyl)-5′,6′-dihydrospiro[chromeno[2,3-c]pyridine-5,4′-[1,3]oxazin]-7-yl)-5-methoxy-2-pyridinecarboxamide]
0.7 nM | – | 401000 nM | NC1=N[C@@]2(CCO1)c1cc(NC(=O)c3ccc(Cl)cn3)ccc1Oc1ncc(-c3ccnc(F)c3)cc12 [Example 90, N-((5S)-2′-amino-3-(2-fluoro-4-pyridinyl)-5′,6′-dihydrospiro[chromeno[2,3-b]pyridine-5,4′-[1,3]oxazin]-7-yl)-5-chloro-2-pyridinecarboxamide]
5.7 nM | – | – | NC1=N[C@@]2(CCO1)c1cc(NC(=O)c3ccc(F)cn3)ccc1Oc1c(F)cc(-c3ccnc(F)c3)cc12 [Example 102, N-((4S)-2-amino-5′-fluoro-7′-(2-fluoro-4-pyridinyl)-5,6-dihydrospiro[1,3-oxazine-4,9′-xanthen]-2′-yl)-5-fluoro-2-pyridinecarboxamide]
31.8 nM | – | 350000 nM | COc1cc(F)c2c(c1)[C@]1(CCSC(N)=N1)c1cc(NC(=O)c3ccc(Cl)cn3)ccc1O2 [Example 32, N-((4S)-2-amino-5′-fluoro-7′-methoxy-5,6-dihydrospiro[1,3-thiazine-4,9′-xanthen]-2′-yl)-5-chloro-2-pyridinecarboxamide]
0.3 nM | – | 151000 nM | CC#CCOc1cnc(C(=O)Nc2ccc3c(c2)[C@@]2(CCOC(N)=N2)c2cc(Cl)nc(F)c2O3)cn1 [Example 48, N-((5S)-2′-amino-3-chloro-1-fluoro-5′,6′-dihydrospiro[chromeno[2,3-c]pyridine-5,4′-[1,3]oxazin]-7-yl)-5-(2-butyn-1-yloxy)-2-pyrazinecarboxamide]
1.2 nM | 2.8 nM | – | COc1cnc(C(=O)Nc2ccc3c(c2)[C@@]2(CCSC(N)=N2)c2cc(-c4cncc(F)c4)nc(F)c2O3)cn1 [Example 112, N-((5S)-2′-amino-1-fluoro-3-(5-fluoro-3-pyridinyl)-5′,6′-dihydrospiro[chromeno[2,3-c]pyridine-5,4′-[1,3]thiazin]-7-yl)-5-methoxy-2-pyrazinecarboxamide]
0.4 nM | 0.8 nM | – | Cc1nc(C(=O)Nc2ccc3c(c2)[C@@]2(CCOC(N)=N2)c2cc(-c4ccnc(F)c4)nc(F)c2O3)cs1 [Example 99, N-((5S)-2′-amino-1-fluoro-3-(2-fluoro-4-pyridinyl)-5′,6′-dihydrospiro[chromeno[2,3-c]pyridine-5,4′-[1,3]oxazin]-7-yl)-2-methyl-1,3-thiazole-4-carboxamide]
181 nM | – | 331000 nM | COc1ccc(C(=O)Nc2ccc3c(c2)[C@@]2(CCOC(N)=N2)c2cc(OC)cc(F)c2O3)c(F)c1 [Example 77, N-((4S)-2-amino-5′-fluoro-7′-methoxy-5,6-dihydrospiro[1,3-oxazine-4,9′-xanthen]-2′-yl)-2-fluoro-4-methoxybenzamide]
27 nM | – | 400000 nM | COc1cc(F)c2c(c1)[C@]1(CCOC(N)=N1)c1cc(NC(=O)c3cnc(OC)cn3)ccc1O2 [Example 75, N-((4S)-2-amino-5′-fluoro-7′-methoxy-5,6-dihydrospiro[1,3-oxazine-4,9′-xanthen]-2′-yl)-5-methoxy-2-pyrazinecarboxamide]
0.5 nM | – | 400000 nM | N#Cc1ccc(C(=O)Nc2ccc3c(c2)[C@@]2(CCOC(N)=N2)c2cc(-c4ccnc(F)c4)cc(F)c2O3)nc1 [Example 108, N-((4S)-2-amino-5′-fluoro-7′-(2-fluoro-4-pyridinyl)-5,6-dihydrospiro[1,3-oxazine-4,9′-xanthen]-2′-yl)-5-cyano-2-pyridinecarboxamide]
20.5 nM | – | > 400000 nM | COc1cc(F)c2c(c1)[C@]1(CCOC(N)=N1)c1cc(NC(=O)c3ccc(Cl)cn3)ccc1O2 [Example 42, N-((4S)-2-amino-5′-fluoro-7′-methoxy-5,6-dihydrospiro[1,3-oxazine-4,9′-xanthen]-2′-yl)-5-chloro-2-pyridinecarboxamide]
0.039 nM | 0.74 nM | – | N#Cc1ccc(C(=O)Nc2ccc3c(c2)[C@@]2(CCOC(N)=N2)c2cc(C4=CCOCC4)nc(F)c2O3)nc1 [Example 64, N-((5S)-2′-amino-3-(3,6-dihydro-2H-pyran-4-yl)-1-fluoro-5′,6′-dihydrospiro[chromeno[2,3-c]pyridine-5,4′-[1,3]oxazin]-7-yl)-5-cyano-2-pyridinecarboxamide]
31 nM | – | > 400000 nM | NC1=N[C@@]2(CCO1)c1cc(NC(=O)c3ccc(Cl)cn3)ccc1Oc1c2cc(Cl)nc1F [Example 38, N-((5S)-2′-amino-3-chloro-1-fluoro-5′,6′-dihydrospiro[chromeno[2,3-c]pyridine-5,4′-[1,3]oxazin]-7-yl)-5-chloro-2-pyridinecarboxamide]
279 nM | – | 386000 nM | Cc1cccnc1Nc1ccc2c(c1)[C@@]1(CCOC(N)=N1)c1cc(Cl)nc(F)c1O2 [Example 41, (5S)-3-chloro-1-fluoro-N~7~-(3-methyl-2-pyridinyl)-5′,6′-dihydrospiro[chromeno[2,3-c]pyridine-5,4′-[1,3]oxazine]-2′,7-diamine]
– | – | 335000 nM | COc1cnc(C(=O)Nc2ccc3c(c2)[C@@]2(CCOC(N)=N2)c2cc(Cl)nc(F)c2O3)cn1 [Example 47, N-((5S)-2′-amino-3-chloro-1-fluoro-5′,6′-dihydrospiro[chromeno[2,3-c]pyridine-5,4′-[1,3]oxazin]-7-yl)-5-methoxy-2-pyrazinecarboxamide]
0.08 nM | 0.9 nM | – | Cc1nc(C(=O)Nc2ccc3c(c2)[C@@]2(CCOC(N)=N2)c2cc(C4=CCCOC4)nc(F)c2O3)cs1 [Example 85, N-((5S)-2′-amino-3-(5,6-dihydro-2H-pyran-3-yl)-1-fluoro-5′,6′-dihydrospiro[chromeno[2,3-c]pyridine-5,4′-[1,3]oxazin]-7-yl)-2-methyl-1,3-thiazole-4-carboxamide]
